Measurements reported in article PMC6958387, “Biological Evaluation of Arylsemicarbazone Derivatives as Potential Anticancer Agents” (Pharmaceuticals, 2019).

What was measured:
[1] = system: Peripheral Blood Mononuclear Cells (PBMCs); test: MTT cytotoxicity in normal cells, 72 h; format: cell-based, human; details: Homo sapiens, PBMC, 72 h of incubation
Experimental: In order to evaluate the cytotoxic potential in normal cells, all the derivatives were tested against Peripheral Blood Mononuclear Cells (PBMCs) and the most promising compounds were again compounds 3c and 4a, which offered more selectivity against the cancer cells.
Mononuclear cells were obtained from the peripheral blood of healthy volunteers by heparin tube collection and isolated by Ficoll-Histopaque gradient centrifugation. After centrifugation, the cells were harvested, washed and resuspended in RPMI 1640 medium supplemented with 20% fetal bovine serum, 2 mM glutamine, 100 U/mL penicillin and 100 μg/mL streptomycin (Gibco™ Life Technologies, Waltham, MA, USA). The phytohemagglutinin mitogen 2% was also added into the culture medium. After that, using the neubauer chamber, the cells were counted and plated in a 96-well plate at a concentration of 10^6 cells/mL and then were maintained for overnight under incubation at 37 °C and 5% CO2 [65].
(§1) The evaluation of the cytotoxicity of the compounds was performed by the method of 3-(4,5-dimethyl-2-thiazolyl)-2,5-diphenyl-2H-tetrazolium bromide (MTT) (Sigma Aldrich Co., St. Louis, MO, USA). To perform the assay the cells were seeded in 96-well plates at the following concentrations: HL-60 and K562 (0.3 × 10^6 cells/mL); MOLT-4 and PBMC (10^6 cells/mL); NCI-H292, HT-29, HEp-2 e MCF-7 (10^5 cells/mL). Briefly, the compounds previously dissolved in DMSO (dimethylsulfoxide, Vetec, São Paulo, Brazil), were diluted in medium and added to each well at the desired concentrations. For the calculation of the concentration that inhibits 50% of cell growth (IC50) the compounds were serially diluted to obtain the final concentrations between 0.19–25 μg/mL. Doxorubicin was used as the standard in the concentration range between (0.078–10 μg/mL). After 72 h of contact of the cells with the compounds, it was added to each well 25 μL of MTT solution (5 mg/mL). Plates were left for another 3 h in incubator at 37 °C and at the end of that period the supernatant was aspirated. To perform the reading, 100 μL of DMSO was added in each well for the dissolution of the formazan crystals. The amount of formazan was measured by reading the plate at 560 nm absorbance. The IC50 was calculated from the nonlinear regression in the Prisma 7.0 software (GraphPad, San Diego, CA, USA). Each sample was tested in triplicate in three independent experiments.

CDK2/CyclinA = CDK2/CyclinA (Homo sapiens, UniProt P24941); test: Kinase inhibition assay (ADP-Glo); format: biochemical; details: 10 µM ATP
Experimental: HsCDK2/CyclinA (human, cyclin-dependent kinase-2, kindly provided by Dr. A. Echalier-Glazer, Leicester, UK) was assayed in buffer A with 0.8 µg/µL of histone H1 as substrate.

DYRK1A = target: T1, DYRK1A (Rattus norvegicus, UniProt Q63470); test: Kinase inhibition assay (ADP-Glo); format: biochemical; details: 10 µM ATP
T1 construct: amino acids 1 to 499 including the kinase domain; made in house; host or cells: bacteria
Experimental: RnDYRK1A (Rattus norvegicus, amino acids 1 to 499 including the kinase domain, recombinant, expressed in bacteria, DNA vector kindly provided by Dr. W. Becker, Aachen, Germany) was assayed in buffer A with 0.033 μg/µL of the following peptide: KKISGRLSPIMTEQ as substrate.

CDK9/CyclinT = CDK9/CyclinT (Homo sapiens, UniProt P50750); test: Kinase inhibition assay (ADP-Glo)
Sequence of CDK9/CyclinT (P50750 whole entry): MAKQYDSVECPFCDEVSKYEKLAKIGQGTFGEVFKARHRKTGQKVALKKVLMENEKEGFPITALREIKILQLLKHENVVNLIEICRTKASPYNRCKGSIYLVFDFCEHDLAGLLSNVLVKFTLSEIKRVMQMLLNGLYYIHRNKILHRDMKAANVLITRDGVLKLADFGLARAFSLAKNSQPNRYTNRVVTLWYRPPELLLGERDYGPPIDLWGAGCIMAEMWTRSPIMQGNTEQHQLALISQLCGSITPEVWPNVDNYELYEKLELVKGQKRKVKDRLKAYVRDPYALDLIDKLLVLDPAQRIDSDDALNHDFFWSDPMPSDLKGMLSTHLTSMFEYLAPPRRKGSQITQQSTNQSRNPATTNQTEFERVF
Sequence of CDK9/CyclinT (O60563 whole entry partner): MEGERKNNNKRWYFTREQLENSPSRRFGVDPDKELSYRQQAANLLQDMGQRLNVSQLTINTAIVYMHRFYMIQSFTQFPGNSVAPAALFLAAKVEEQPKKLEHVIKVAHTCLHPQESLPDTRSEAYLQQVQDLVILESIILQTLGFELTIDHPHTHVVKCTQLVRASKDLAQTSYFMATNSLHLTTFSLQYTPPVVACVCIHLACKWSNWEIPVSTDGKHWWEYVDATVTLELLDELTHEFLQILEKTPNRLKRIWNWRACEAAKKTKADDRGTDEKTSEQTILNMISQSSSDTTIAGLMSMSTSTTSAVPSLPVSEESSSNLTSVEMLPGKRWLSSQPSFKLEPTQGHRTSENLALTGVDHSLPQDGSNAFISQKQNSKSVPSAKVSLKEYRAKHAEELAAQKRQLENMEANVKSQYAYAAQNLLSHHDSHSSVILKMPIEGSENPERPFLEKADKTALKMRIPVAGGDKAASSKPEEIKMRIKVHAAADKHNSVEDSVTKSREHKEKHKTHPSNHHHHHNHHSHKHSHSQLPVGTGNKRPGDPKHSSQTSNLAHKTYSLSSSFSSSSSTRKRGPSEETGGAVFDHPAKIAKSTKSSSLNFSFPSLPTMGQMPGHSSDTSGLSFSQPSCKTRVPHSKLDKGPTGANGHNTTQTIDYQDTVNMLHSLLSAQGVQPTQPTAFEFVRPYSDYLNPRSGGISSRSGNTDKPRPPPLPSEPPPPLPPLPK

CLK1 = target: T2, CLK1 (Mus musculus, UniProt P22518); test: Kinase inhibition assay (ADP-Glo); format: biochemical; details: 10 µM ATP
T2 construct: made in house; host or cells: bacteria
T2 sequence (P22518 whole entry): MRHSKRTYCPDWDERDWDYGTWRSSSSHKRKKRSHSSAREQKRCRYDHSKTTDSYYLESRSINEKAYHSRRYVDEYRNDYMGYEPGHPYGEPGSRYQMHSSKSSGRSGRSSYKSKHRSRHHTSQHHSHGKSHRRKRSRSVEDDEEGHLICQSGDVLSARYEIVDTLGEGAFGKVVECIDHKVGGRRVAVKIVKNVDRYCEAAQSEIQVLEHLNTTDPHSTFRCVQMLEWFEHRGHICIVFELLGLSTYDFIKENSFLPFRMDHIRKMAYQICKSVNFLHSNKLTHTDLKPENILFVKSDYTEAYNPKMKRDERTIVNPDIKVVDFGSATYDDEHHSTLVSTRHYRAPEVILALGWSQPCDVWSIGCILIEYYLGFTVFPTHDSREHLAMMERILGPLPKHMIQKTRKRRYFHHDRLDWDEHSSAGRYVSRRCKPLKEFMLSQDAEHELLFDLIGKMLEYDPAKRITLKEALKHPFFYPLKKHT
Experimental: MmCLK1 (from Mus musculus, recombinant, expressed in bacteria) was assayed in buffer A with 0.027μg/µL of the following peptide: GRSRSRSRSRSR as substrate.

CDK5/p25 = target: T3, CDK5/p25 (Homo sapiens, UniProt Q00535); test: Kinase inhibition assay (ADP-Glo); format: biochemical; details: 10 µM ATP
T3 construct: made in house; host or cells: bacteria
T3 sequence (Q00535 whole entry): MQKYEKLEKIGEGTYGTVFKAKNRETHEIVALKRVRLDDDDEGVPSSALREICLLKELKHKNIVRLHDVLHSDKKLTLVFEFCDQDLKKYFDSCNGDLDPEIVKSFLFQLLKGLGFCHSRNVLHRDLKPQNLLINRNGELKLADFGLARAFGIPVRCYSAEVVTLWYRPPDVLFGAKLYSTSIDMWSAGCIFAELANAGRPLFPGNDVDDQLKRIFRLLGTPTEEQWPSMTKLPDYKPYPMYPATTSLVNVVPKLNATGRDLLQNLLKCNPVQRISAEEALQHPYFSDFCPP
T3 sequence (Q15078 99-307 partner limits assumed): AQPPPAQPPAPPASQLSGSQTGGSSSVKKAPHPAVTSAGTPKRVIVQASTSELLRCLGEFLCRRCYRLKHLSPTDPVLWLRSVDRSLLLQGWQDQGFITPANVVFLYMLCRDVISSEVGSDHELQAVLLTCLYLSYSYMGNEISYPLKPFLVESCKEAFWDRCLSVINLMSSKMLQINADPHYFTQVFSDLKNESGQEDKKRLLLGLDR
Experimental: HsCDK5/p25 (human, recombinant, expressed in bacteria) was assayed in buffer A, with 0.8 µg/µL of histone H1 as substrate.

HT-29 = test: MTT cytotoxicity, 72 h; format: cell-based, human; details: Homo sapiens, HT-29, 72 h of incubation
Experimental: (§2) The cytotoxicity assessment was performed against three human cancer cell lines in suspension (K562, HL-60 and MOLT-4) and four adhered (HEp-2, NCI-H292, HT-29 and MCF-7).
(§3) The cells were obtained from the Cell Bank of Rio de Janeiro and maintained in the Laboratory of Cell Culture of the Department of Antibiotics of the Federal University of Pernambuco. The lines K562 (myeloblastic leukaemia), HL-60 (promyelocytic leukemia) and MOLT-4 (lymphoblastic leukemia) were cultured in RPMI 1640 medium and the lines HEp-2 (larynx carcinoma), NCI-H292 (lung carcinoma), HT-29 (colon adenocarcinoma) and MCF-7 (breast adenocarcinoma) were cultured in DMEM medium, supplemented with 10% fetal bovine serum, 2 mM glutamine, 100 U/mL penicillin and 100 μg/mL streptomycin (Gibco™ Life Technologies), at 37 °C and 5% CO2.
as §1

NCI-H292 = test: MTT cytotoxicity, 72 h; format: cell-based, human; details: Homo sapiens, NCI-H292, 72 h of incubation
Experimental: as §2, §3, §1

HEp-2 = test: MTT cytotoxicity, 72 h; format: cell-based, human; details: Homo sapiens, HEp-2, 72 h of incubation
Experimental: as §2, §3, §1

MCF-7 = test: MTT cytotoxicity, 72 h; format: cell-based, human; details: Homo sapiens, MCF7, 72 h of incubation
Experimental: as §2, §3, §1

MOLT-4 = test: MTT cytotoxicity, 72 h; format: cell-based, human; details: Homo sapiens, MOLT-4, 72 h of incubation
Experimental: as §2, §3, §1

K562 = test: MTT cytotoxicity, 72 h; format: cell-based, human; details: Homo sapiens, K562, 72 h of incubation
Experimental: as §2, §3, §1

HL-60 = test: MTT cytotoxicity, 72 h; format: cell-based, human; details: Homo sapiens, HL-60; MTT, 72 h of incubation
Experimental: as §2, §3, §1

AURKB = target: T4, AURKB (Homo sapiens, UniProt Q96GD4); test: Kinase inhibition assay (ADP-Glo); format: biochemical; details: 10 µM ATP
T4 construct: purchased SignalChem A31-10G; host or cells: Sf9 insect cells (baculovirus)
T4 sequence (Q96GD4 whole entry): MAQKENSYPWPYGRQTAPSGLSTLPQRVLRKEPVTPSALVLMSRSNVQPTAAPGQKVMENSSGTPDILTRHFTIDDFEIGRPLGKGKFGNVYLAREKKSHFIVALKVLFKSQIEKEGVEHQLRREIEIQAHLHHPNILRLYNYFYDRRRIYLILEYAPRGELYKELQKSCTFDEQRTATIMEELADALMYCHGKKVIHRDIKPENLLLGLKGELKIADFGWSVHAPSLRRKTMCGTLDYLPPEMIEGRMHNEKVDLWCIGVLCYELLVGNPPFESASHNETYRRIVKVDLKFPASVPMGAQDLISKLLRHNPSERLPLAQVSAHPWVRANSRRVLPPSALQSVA

CK1δ/ε = test: Kinase inhibition assay (ADP-Glo); format: biochemical, Sus scrofa domesticus; details: 10 µM ATP
Experimental: SscCK1δ/ε (Sus scrofa domesticus, casein kinase 1δ/ε, affinity purified from porcine brain) was assayed in buffer A, with 0.022 μg/μL of the following peptide: RRKHAAIGSpAYSITA (“Sp” stands for phosphorylated serine) as CK1-specific substrate.

GSK3 α/β = test: Kinase inhibition assay (ADP-Glo); format: biochemical, Sus scrofa domesticus; details: 10 µM ATP
Experimental: SscGSK-3α/β (Sus scrofa domesticus, glycogen synthase kinase-3, affinity purified from porcine brain) was assayed in buffer A with 0.010 µg/µL of GS-1 peptide, a GSK-3-selective substrate ([…]pEDEEE, “Sp” stands for phosphorylated serine).

HASPIN = target: T5, HASPIN (Homo sapiens, UniProt Q8TF76); test: Kinase inhibition assay (ADP-Glo); format: biochemical; details: 10 µM ATP
T5 construct: kinase domain, amino acids 470 to 798; made in house; host or cells: bacteria
T5 sequence (Q8TF76 470-798): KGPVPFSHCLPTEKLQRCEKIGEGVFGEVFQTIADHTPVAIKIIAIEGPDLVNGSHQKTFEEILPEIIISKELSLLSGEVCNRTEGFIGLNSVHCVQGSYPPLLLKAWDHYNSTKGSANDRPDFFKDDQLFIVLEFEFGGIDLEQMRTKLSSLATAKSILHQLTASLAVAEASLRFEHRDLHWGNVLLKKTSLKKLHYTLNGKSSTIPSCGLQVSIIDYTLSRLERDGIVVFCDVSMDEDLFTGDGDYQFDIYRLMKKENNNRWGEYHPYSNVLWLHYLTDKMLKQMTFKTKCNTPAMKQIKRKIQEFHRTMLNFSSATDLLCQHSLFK
Experimental: HsHASPIN (human, kinase domain, amino acids 470 to 798, recombinant, expressed in bacteria) was assayed in buffer A with 0.007 µg/µL of Histone H3 (1-21) peptide ([…]) as substrate;

PIM1 = target: T6, PIM1 (Homo sapiens, UniProt P11309); test: Kinase inhibition assay (ADP-Glo); format: biochemical; details: 10 µM ATP
T6 construct: made in house; host or cells: bacteria
T6 sequence (P11309 whole entry): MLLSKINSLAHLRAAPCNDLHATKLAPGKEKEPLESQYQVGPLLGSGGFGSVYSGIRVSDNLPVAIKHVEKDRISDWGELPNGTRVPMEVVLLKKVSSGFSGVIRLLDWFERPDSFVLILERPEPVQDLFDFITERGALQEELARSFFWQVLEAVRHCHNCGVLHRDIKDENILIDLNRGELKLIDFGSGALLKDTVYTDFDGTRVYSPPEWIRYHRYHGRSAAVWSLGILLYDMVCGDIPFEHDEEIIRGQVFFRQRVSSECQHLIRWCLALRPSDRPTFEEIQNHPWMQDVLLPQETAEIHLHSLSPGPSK
Experimental: HsPIM1 (human proto-oncogene, recombinant, expressed in bacteria) was assayed in buffer B with 0.8 µg/µL of histone H1 (Sigma #H5505) as substrate.

Row | melting point | IC50 (CDK2/CyclinA) | IC50 (DYRK1A) | IC50 (CDK9/CyclinT) | IC50 (CLK1) | IC50 (CDK5/p25) | IC50 (AURKB) | IC50 (CK1δ/ε) | IC50 (GSK3 α/β) | IC50 (HASPIN) | IC50 (PIM1) | Structure (SMILES) | IC50 [1] | IC50 (HT-29) | IC50 (NCI-H292) | IC50 (HEp-2) | IC50 (MCF-7) | IC50 (MOLT-4) | IC50 (K562) | IC50 (HL-60)
1 | 246 to 247 °C | > 10 µM | > 10 µM | > 10 µM | > 10 µM | > 10 µM | > 10 µM | > 10 µM | > 10 µM | > 10 µM | > 10 µM | NC(=O)NN=Cc1ccc(Cl)c(Cl)c1 [Compound 3f, 3,4-Dichlorobenzaldehyde Semicarbazone] | > 100 µM | > 100 µM | > 100 µM | 8.61 ± 0.35 µM | 23.3 ± 1.55 µM | > 100 µM | 26.3 ± 1.86 µM | 14.2 ± 1.41 µM
2 | 216 to 218 °C | > 10 µM | > 10 µM | > 10 µM | 1.9 µM | > 10 µM | > 10 µM | > 10 µM | > 10 µM | > 10 µM | > 10 µM | CC(C)(C)c1ccc(C=NNC(N)=O)cc1 [Compound 3h, 4-Tert-Butylbenzaldehyde Semicarbazone] | 49.7 ± 1.06 µM | 47 ± 0.75 µM | 48.8 ± 0.97 µM | 42.9 ± 0.75 µM | 58.4 ± 1.86 µM | 25.5 ± 1.9 µM | > 100 µM | > 100 µM
3 | 225 to 226 °C |  |  |  |  |  |  |  |  |  |  | NC(=O)NN=Cc1ccncc1 [Compound 3i, 4-Pyridinecarboxaldehyde Semicarbazone] | > 100 µM | > 100 µM | > 100 µM | > 100 µM | > 100 µM | > 100 µM | > 100 µM | > 100 µM
4 | 227 to 230 °C |  |  |  |  |  |  |  |  |  |  | NC(=O)NN=Cc1cccs1 [Compound 3k, 2-Thiophenecarboxaldehyde Semicarbazone] | > 100 µM | > 100 µM | > 100 µM | > 100 µM | > 100 µM | > 100 µM | > 100 µM | > 100 µM
5 |  |  |  | > 10 µM |  | > 10 µM |  |  | > 10 µM | > 10 µM | > 10 µM | NC(=O)N/N=C/c1ccc([N+](=O)[O-])o1 [Compound 3m, 5-Nitro-2-furfuraldehyde Semicarbazone] | > 100 µM | 28.4 ± 8.56 µM | 31.9 ± 0.07 µM |  | 8.56 ± 0.01 µM |  |  | 24.33 ± 0.16 µM
